Biological target: T1, Tyrosine-protein phosphatase non-receptor type 1 (Homo sapiens, UniProt P18031)
T1 sequence (P18031 whole entry): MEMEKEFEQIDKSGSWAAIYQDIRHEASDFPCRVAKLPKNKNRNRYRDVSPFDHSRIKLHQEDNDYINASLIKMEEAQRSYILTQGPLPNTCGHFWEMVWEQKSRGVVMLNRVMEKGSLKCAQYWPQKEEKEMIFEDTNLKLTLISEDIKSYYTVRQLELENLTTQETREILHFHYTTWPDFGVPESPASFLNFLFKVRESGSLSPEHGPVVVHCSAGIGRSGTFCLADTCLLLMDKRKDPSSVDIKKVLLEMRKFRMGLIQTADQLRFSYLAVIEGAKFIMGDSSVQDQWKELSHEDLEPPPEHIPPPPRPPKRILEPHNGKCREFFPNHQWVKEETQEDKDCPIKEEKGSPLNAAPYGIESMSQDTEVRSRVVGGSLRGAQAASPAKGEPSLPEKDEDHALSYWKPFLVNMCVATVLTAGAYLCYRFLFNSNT
Experiment: Inhibition of human recombinant PTP1B

IC50 [µM]	Compound
19.2	COc1cc([C@@H]2CC(=O)c3ccc(O)cc3O2)cc(CC=C(C)C)c1O
26.7	CC(C)=CCc1cc(-c2cc(=O)c3c(O)cc(O)cc3o2)ccc1O
17.3	COc1cc([C@@H]2CC(=O)c3c(O)cc(O)cc3O2)cc(CC=C(C)C)c1O [ABYSSININ II]
18.2	COc1cc(C2CC(=O)c3c(O)cc(O)cc3O2)cc2c1OC(C)(C)C=C2 (stereo not drawn) [ABYSSININ I]
15.7	C=C(C)C(O)Cc1cc([C@@H]2CC(=O)c3c(O)cc(O)cc3O2)cc(CC=C(C)C)c1O (stereo partly drawn) [ABYSSINOFLAVANONE VII]
18.9	CC(C)=CCc1cc([C@@H]2CC(=O)c3c(O)cc(O)cc3O2)cc2ccoc12 [ABYSSINOFLAVANONE VI]
> 60	CC1(C)C=Cc2cc([C@@H]3CC(=O)c4c(O)cc(O)cc4O3)ccc2O1 [ABYSSINOFLAVONE V]
20.6	CC(C)=CCc1cc(/C=C/C(=O)c2ccc(O)cc2O)cc(CC=C(C)C)c1O [ABYSSINONE VI]
16.9	CC(C)=CCc1cc(/C=C/C(=O)c2ccc(O)cc2O)ccc1O [LICOAGROCHALCONE A]
14.4	CC(C)=CCc1cc([C@@H]2CC(=O)c3c(O)cc(O)cc3O2)c(CC=C(C)C)c(O)c1O [SIGMOIDIN A]
19.4	CC(C)=CCc1cc([C@@H]2CC(=O)c3c(O)cc(O)cc3O2)cc(O)c1O [SIGMOIDIN B]
> 60	CC1(C)C=Cc2cc([C@@H]3CC(=O)c4c(O)cc(O)cc4O3)cc(O)c2O1 [SIGMOIDIN C]
14.2	CC(C)=CCc1c([C@H]2CC(=O)c3c(O)cc(O)cc3O2)cc2c(c1O)OC(C)(C)C=C2 [SIGMOIDIN F]
